According to patent US20210346392A1, “PHARMACEUTICAL COMPOSITION FOR ORAL ADMINISTRATION” (ASTELLAS PHARMA INC., priority 2018, published 2021):
Converted amounts (≈) assume the structure as drawn. Read-outs that look alike come from different tables or passages of the source.

Experiments:
[1] = Storage stability: total amount of related substances by HPLC (Experimental Example 1); format: physicochemical; settings: stored at 40° C., 75% RH for 1 month, glass bottle, covered
Description: The storage stability as used herein can be evaluated by measuring the change in the amount of related substances derived from compound A when the pharmaceutical composition for oral administration is stored under certain storage conditions. For example, after the pharmaceutical composition for oral administration is stored under certain conditions, the total amount of related substances of compound A contained in the pharmaceutical composition for oral administration, or a specific related substance of compound A is measured. […] The percentage (%) of the total peak area of related substances with respect to the sum of all peak areas including the peak area of compound A are calculated, and is compared with the value before storage to calculate the amount of change (the amount of increase)(%). Alternatively, as shown in Experimental Example 3 described below, the percentage (%) of the peak area of related substance A with respect to the sum of all peak areas obtained in the same manner is calculated, and it is also possible to evaluate the storage stability by the change over time of related substance A.
The physical mixtures obtained in Example 1 and Comparative Example 1 were placed in glass bottles, covered, and stored at 40° C., 75% RH for 1 month, and the total amount of related substances before and after storage was measured by the method described below. […]

[2] = Solubility of compound A in Japanese Pharmacopoeia dissolution test fluids; format: physicochemical; settings: for solubility: Seventeenth Edition
Description: When compound A was formulated, the solubility of compound A was confirmed based on a Dissolution Test of the Japanese Pharmacopoeia, Seventeenth Edition, and there was a large difference between an acidic pH range and a neutral pH range.

With Cc1nc(CN2CCS(=O)(=O)CC2)c2cc(C3CCC(C)(C)CC3)sc2n1 [Compound A, 6-(4,4-Dimethylcyclohexyl)-4-[(1,1-dioxo-1λ^6-thiomorpholin-4-yl)methyl]-2-methylthieno[2,3-d]pyrimidine] the “Increased amount of total related substances (%) (n = 2)” value [1] was 0.00%, the “Increased amount of total related substances (%) (n = 2)” value ([1]; listed as compound A) was “did not increase” and the “difference of solubility between acidic and neutral pH range” value ([2]; first fluid vs second fluid) was “approximately 30 times”. It also gave a solubility ([2]; pH 1.2, simulated gastric fluid, first fluid for a Dissolution Test of the Japanese Pharmacopoeia, read-out: solubility in an acidic pH range) of roughly 41 µg/mL (≈ 101 µM) and a solubility ([2]; pH 6.8, aqueous buffer, second fluid for a Dissolution Test of the Japanese Pharmacopoeia, read-out: solubility at a neutral pH range) of roughly 1.2 µg/mL (≈ 2.94 µM).
